# Experimental data reported in patent US20050112182A1, “Medical adhesive and medical covering agent using ultraviolet ray curable chitosan derivative” (priority 2003, published 2005).
# Tested on: subcutaneous tissue
# Conditions: dog, in vivo
# Protocol: The adaptability to an organism was tested in respect of the medical adhesive according to one embodiment of the present invention.
# Three incision each having a length of 2 cm in the direction of the body axis were formed on the back of a dog anesthetized with acepromazine (0.5 mg/Kg) and pentobarbital (25 mg/Kg), and each of the subcutaneous regions of the incision portions was enlarged with scissors so as to have a diameter of about 2 cm.
# Three kinds of treatments (A), (B) and (C) given below were applied to each of the incision portions:
# (A) Dimethyl sulfoxide used as a reference substance was injected in an amount of 0.5 ml, and irradiation with an ultraviolet ray was not performed.
# (B) The adhesive was injected in an amount of 0.5 ml, and irradiation with an ultraviolet ray was not performed.
# (C) The adhesive was injected in an amount of 0.5 ml, and irradiation with an ultraviolet ray was performed.
# One week later, each portion was collected under a general anesthesia so as to carry out the histological analysis.
structure (smiles),measurement,setting,value
"C[S+](C)[O-] [(A) reference, Dimethyl sulfoxide]",Adaptability to organism (recognition as foreign matter),,recognized as a foreign matter within the organism
same,Clinical inflammation reaction,,not recognized
same,"Inflammation reaction, histological",,prominent histologically
same,"Clinical inflammation reaction (pain), Second day",sc,±
same,"Clinical inflammation reaction (pain), Third day",sc,−
